Our source for the IC50, Degradation activity and inhibition values is patent US11155561B2, “Substituted glutarimides as Btk inhibitors” (SHANGHAI MEIZER PHARMACEUTICALS CO., LTD., priority 2017, dated 2021).

Assay [1] deals with RPMI 8226 cells (human multiple myeloma cells). Description: Inhibition of proliferation of RPMI 8226 cells by CCK8 assay. The following applies: 48 hours. Format: cell-based. How it is done: Example 7 Testing the Inhibitory Effect of Formula Compounds on the Proliferation of RPMI 8226 Cells (Human Multiple Myeloma Cells) by CCK8 Assay
The inhibitory effect of the compound on the proliferation of RPMI 8226 cells (commercially available from ATCC) was determined by the CCK8 assay in vitro. The experimental steps were as follows:
RPMI 8226 cells were cultured in 1640 medium containing 10% calf serum, seeded in a 96-well plate with 2×10^5 cells/well, and placed in a 37° C., 5% CO2 incubator. The compound was dissolved in dimethyl sulfoxide (DMSO) to obtain a solution with a concentration of 10 mM, and then diluted to the desired concentration with a phosphate buffer solution. The solution was added to the above 96-well plate. Each concentration has 2 wells with 10 μl per well. Each concentration was tested in duplicate. As a control, DMSO was diluted in the corresponding gradient and then added to the plate.
After the 96-well plate was cultured in a 37° C., 5% CO2 cell incubator for 48 hours, 10 μl of CCK8 solution was added to each well, and it was cultured in the incubator for another 1 to 4 hours. The light absorption value at 465 nm was measured.
The relative survival rate of the cells after the compound treatment was calculated based on the light absorption value.
The IC50 of the compound against RPMI 8226 cells was calculated by software.
A general note: Tetrazolium assays rely on reduction of a dye to a coloured formazan, in cell work by metabolically active cells.

Assay [2] concerns the target T1, Btk (Homo sapiens, UniProt Q06187). Description: Btk protein degradation activity by Western blot in RPMI8226 cells. Format: cell-based. Also noted: degradation activity of the compound (10 μM) on Btk protein in RPMI8226 cells; endogenous in cells; host or cells: RPMI8226. The following applies: compound 10 μM, 24 hours. How it is done: Example 6 Testing the Btk Protein Degradation Activity of Compounds by Western Blot
Cell lines: RPMI8226 Cell line was cultured in RPMI1640 medium containing 10% calf serum in a 37° C., 5% CO2, and saturated humidity incubator.
DMSO control group and compound intervention group (10 μM) were set. Cells was collected after the treatment for 24 hours, then 100 μL of pre-chilled cell lysate was added and cells were lysed on ice for 30 minutes. Total cell protein was extracted, and protein concentration was determined and quantified by […] (BCA) method. After routine gelatinization, loading, electrophoresis, then transferring to membrane and blocking, rabbit anti-human Btk (1:500) was added, and incubated at 4° C. overnight. The mixture was rinsed and then horseradish peroxidase labeled goat anti-rabbit IgG (1:5000) was added. After the rinsing it was developed by the ECL developing solution, the Bio-Rad gel imaging system was used for scanning and imaging, and the computer software was used for analysis. […] (GAPDH) was used as an internal control.
Image J software was used to analyze the gray scale of each band to calculate the Btk protein degradation rate of the compound.
A general note: Immunoblotting shows a protein as a band on a membrane.

In assay [3] the target is T1, Btk. Description: Inhibition activity of compounds on Btk by Caliper assay. The following applies: compound 100 nM, Btk kinase. The format is biochemical. How it is done: Example 5 Testing the Inhibition Activity of Compounds on Btk by Caliper Assay
The experimental steps were as follows:
Preparation of 1× kinase reaction buffer (50 mM HEPES, PH 7.5; 0.0015% Brij-35) and kinase reaction termination solution (100 mM HEPES, PH 7.5; 0.0015% Brij-35; 0.2% Coating Reagent; 50 mM EDTA);
Preparation of experimental samples: 100 μL of 5 μM sample solution (dissolved in 100% DMSO) was added to a 96-well plate to obtain a 50× sample solution. As a control, two wells were set containing only 100 μL of 100% DMSO on the same plate. One was served as a control without samples and the other was served as a control without enzymes. 10 μL of sample and 90 μL of 1× kinase reaction buffer were added to a 96-well plate as a transfer plate. The transfer plate was shaken for 10 minutes.
Preparation of the test plate: taking 5 μL each of the prepared samples in the 96-well transfer plate into a 384-well plate.
Kinase reaction: to 5 μL of 5× compound solution (dissolved in DMSO, diluted 10 times with water) was added 10 μL of 2.5× Btk kinase solution (kinase was diluted with 1× kinase reaction buffer), and incubated at room temperature for 10 min, then 10 μL of 2.5× substrate peptide solution (FAM-labeled peptide and ATP were diluted with 1× kinase reaction buffer) was added.
Termination of the kinase reaction: 25 μL of kinase termination solution was added after being reacted at 28° C. for a period of time.
The fluorescence (F) was tested on a Caliper and data was collected.
The inhibition rate of kinase activity was calculated: the percent inhibition rate of kinase activity=(FDMSO control−Fsample)/(FDMSO control−Fnegative control)×100, with DMSO as the solution control, and no kinase as the negative control.

Assay [4] deals with SU-DHL-6 (human B cell lymphoma cells). Kind of assay: Inhibition of proliferation of SU-DHL-6 cells by CTG assay. The following applies: compound 10 μM, 72 hours. The format is cell-based. How it is done: (§1) Example 8 Testing the Inhibitory Effect of Formula Compounds on the Proliferation of DOHH2 Cells (Human B Cell Lymphoma Cells) and SU-DHL-6 (Human B Cell Lymphoma Cells) by CTG Assay
(§2) The […] was used to determine the inhibitory effect of the compounds on the proliferation of DOHH2 cells (available from ATCC) and SU-DHL-6 cells (available from ATCC) in vitro. Cells were cultured and compounds were prepared referring to Example 7. The cell plating density was 1×10^4 cells/well for DOHH2 cells, and 1.5×10^4 cells/well for SU-DHL-6 cells. The culture time after the administration was 72 hours. After that an appropriate amount of CTG reagent was added, the luminescence value was measured, and the inhibition rate was calculated.

The subject of assay [5] is DOHH2 cells (human B cell lymphoma cells). Description: Inhibition of proliferation of DOHH2 cells by CTG assay. Format: cell-based. The following applies: DOHH-2, compound 10 μM, 72 hours. How it is done: as §1, §2

T1 sequence (Q06187 whole entry): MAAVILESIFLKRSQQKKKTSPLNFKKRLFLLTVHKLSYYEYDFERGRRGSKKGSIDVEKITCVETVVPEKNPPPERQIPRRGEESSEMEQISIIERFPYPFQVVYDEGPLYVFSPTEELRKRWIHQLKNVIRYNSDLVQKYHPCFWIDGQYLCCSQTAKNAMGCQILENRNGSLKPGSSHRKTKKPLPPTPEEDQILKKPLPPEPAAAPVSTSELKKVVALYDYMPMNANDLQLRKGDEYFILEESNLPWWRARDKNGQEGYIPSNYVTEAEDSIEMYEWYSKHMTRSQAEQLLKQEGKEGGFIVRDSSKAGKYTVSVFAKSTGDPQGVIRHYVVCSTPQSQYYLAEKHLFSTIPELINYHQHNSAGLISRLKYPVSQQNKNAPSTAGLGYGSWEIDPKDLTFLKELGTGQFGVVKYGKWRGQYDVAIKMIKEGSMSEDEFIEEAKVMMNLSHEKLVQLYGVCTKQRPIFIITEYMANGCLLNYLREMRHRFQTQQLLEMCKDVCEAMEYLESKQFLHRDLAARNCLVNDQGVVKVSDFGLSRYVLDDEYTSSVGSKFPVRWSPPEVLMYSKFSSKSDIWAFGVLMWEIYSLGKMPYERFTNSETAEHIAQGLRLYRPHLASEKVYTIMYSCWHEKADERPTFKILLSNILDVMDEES

The term IC50 denotes the point on the concentration scale where inhibition reaches its midpoint. One may read the inhibition as the relative decrease from the control value, in per cent. `Nc1ncnc2c1c(-c1ccc(Oc3ccccc3)cc1)nn2[C@@H]1CCCN(CCCCCC(=O)Nc2cccc3c2C(=O)N(C2CCC(=O)NC2=O)C3=O)C1` (some centres unmarked) [Compound 3]: half-maximal inhibition in assay [1] (IC50) was put at 34 µM. Besides, on Btk [2], the Degradation activity entry was “++++ (“++++” means the degradation rate is greater than 90%)”. The inhibition at 0.1 µM at Btk [3] amounted to 92%. Moreover, the inhibition at 10 µM in assay [4] turned out to be 60%; in assay [5], 87%.

With `Nc1ncnc2c1c(-c1ccc(Oc3ccccc3)cc1)nn2C1CCCN(CCOCCOCCOc2cccc3c2C(=O)N(C2CCC(=O)NC2=O)C3=O)C1` (centres unmarked) [Compound 7], in assay [1], half-maximal inhibition (IC50) required 83 µM. The Degradation activity entry on Btk [2] is reported as “++++ (“++++” means the degradation rate is greater than 90%)”. In addition, testing at 0.1 µM at Btk [3] gave an inhibition of 99%. Moreover, the values for the inhibition at 10 µM in assay [4] and in assay [5] were 53% and 63%, respectively.

`Nc1ncnc2c1c(-c1ccc(Oc3ccccc3)cc1)nn2C1CCCN(CCOCCOCCNc2cccc3c2C(=O)N(C2CCC(=O)NC2=O)C3=O)C1` (centres unmarked) [Compound 14] showed a 50% inhibitory concentration (IC50) in assay [1] of 6 µM. Moreover, the Degradation activity entry at Btk [2] is listed as “++++ (“++++” means the degradation rate is greater than 90%)”. In addition, the inhibition at 0.1 µM against Btk [3] is 99%. Moreover, the inhibition at 10 µM in assay [4] came out at 87%; in assay [5], 98%.

`Nc1ncnc2c1c(-c1ccc(Oc3ccccc3)cc1)nn2C1CCCN(CCOCCOCCOCCNc2cccc3c2C(=O)N(C2CCC(=O)NC2=O)C3=O)C1` (centres unmarked) [Compound 15]: the Degradation activity result at Btk [2] is “++++ (“++++” means the degradation rate is greater than 90%)”. Further, the inhibition at 0.1 µM against Btk [3] worked out at 98%. Also, the results for the inhibition at 10 µM in assay [4] and in assay [5] were 94% and 99%, respectively.

For `Nc1ncnc2c1c(-c1ccc(Oc3ccccc3)cc1)nn2C1CCCN(CCOCCOCCOCCOc2cccc3c2C(=O)N(C2CCC(=O)NC2=O)C3=O)C1` (centres unmarked) [Compound 16], on Btk [2], the Degradation activity entry is given as “++++ (“++++” means the degradation rate is greater than 90%)”. Besides, at Btk [3], the inhibition at 0.1 µM worked out at 95%. Also, the figures for the inhibition at 10 µM in assay [4] and in assay [5] were 71% and 84%, respectively.
